Experimental data as given in patent US20220193111A1, “Method of Treatment” (The University Court of the University of Edinburgh, priority 2018, published 2022).

Tests used:
Type in all cases: cell-based, human
HUVECs [1] = assay: Immunofluorescence of transfected HUVECs; conditions: anti-miR, 48 hrs
Experimental: Cells were fixed using 4% paraformaldehyde in PBS at room temperature for 15 min. For intracellular staining, fixed cells were permeabilized using 0.5% Triton X-100 in PBS (Sigma-Aldrich) or 0.1% Saponin in PBS at room temperature for 10 min. The blocking of […] antibody activity was performed using 3% bovine serum albumin (BSA) in PBS for 1 hour. Samples were incubated with antibodies to CD31 (Abcam, ab28364, 1:50), VE-cadherin (Abcam, ab33168, 1:100), FSP-1 (Abcam, ab41532, 1:200) and COL1A1 (Abcam, ab138492, 1:100) in PBS containing 1% BSA at 4° C. overnight. Samples were washed extensively with PBS and incubated with Alexa-Fluor-488-conjugated antibodies to rabbit IgG (Life Technologies, Carlsbad, Calif., #A11070) and Alexa-Fluor-594-conjugated antibodies to rabbit IgG (Life Technologies, Carlsbad, Calif., #A11072) in DAPI with PBS with 1% BSA at room temperature for 1 h. Image analysis was performed on Zeiss LSM 780 confocal microscope.

HUVECs [2] = assay: Gene (qPCR) and protein (Western blot) expression in transfected HUVECs
Experimental: Human umbilical vein ECs (HUVECs; Lonza) were grown in EGM-2 (comprising EBM-2 with growth factors and other supplements) with 2% Foetal Bovine Serum. Confluent HUVECs were treated with 10 ng/ml TNF-α, IL-1β, TGFβ2 (PeproTech); medium and cytokines were changed every two days. SB431542 (Tocris) has been used at the dose of 10 μM. HEK293T cells (ATCC®, CRL-11268) were cultured in D-MEM with 10% FBS (Life Technologies).
Total RNA was extracted using miReasy kit (Qiagen). Real-time quantification to measure miRNAs was performed with the TaqMan miRNA reverse transcription kit and miRNA assay (Life Technology) using Lightcycler 480 (Roche). miRNAs expression was normalized to the U6 […] (snRU6). For mRNA analysis, cDNA was amplified by quantitative real-time PCR (qPCR) and normalized to 18S ribosomal RNA. Each reaction was performed in triplicate. Quantification was performed by the 2^−ΔΔCt method^52. qPCR was used to measure the expression of miR-148b (miR-148b-3p Thermo Fisher Scientific, Cat. #4426961), snRU6 (ThermoFisher Scientific, Cat. #4331182), TGFβ2, SMAD2, CD31, VE-Cadherin, COL1A1, α-SMA, SLUG, VIM, SNAIL, TWIST, ZEB1/2 and 18S rRNA. Primers are pre-designed from Sigma (KiCgStart™ Primers).
Lipofectamine RNAiMAX (Thermo Fisher Scientific) was used to transfect HUVECs with miR-148b mimic, anti-miR-148b and mimic or anti-miR control (25 nM and […], respectively final concentration) or with siRNA targeting SMAD2 (20 nM final concentration), according to the manufacturer's instructions. jetPEI-HUVECs (Polyplus) was used to transfect HUVECs with DNA plasmids. The following functional assays were performed: BrdU incorporation assay using Cell Proliferation colorimetric assay (Roche); Matrigel assay with HUVECs was performed as previously described using BD Matrigel Basement Membrane Matrix (BD Biosciences)^53.
Proteins were extracted from cultured cells or muscles by using ice-cold buffer A (50 mM Hepes, 150 mM NaCl, 1 mM EDTA, 1 mM EGTA, 25 mM NaF, 5 mM NaPPi, 1%Triton, 1% NP40, 1 mM Na3VO4, 0.25% sodium deoxycholate, 0.5 mM Na-orthovanadate, 1 mM benzamidine, 0.1 mM phenylmethylsulfonyl fluoride). Protein concentration was determined using the Bio-Rad Protein Assay Reagent (Bio-Rad Laboratories, UK). Detection of proteins by Western blot analyses was done following separation of whole cell extracts (20 μg) on SDS-polyacrylamide gels. Proteins were transferred to nitrocellulose membranes and probed with the following antibodies: TGFβ2 (Abcam, ab36495, 1:1000), SMAD2 (SantaCruz Biotechnology, Santa Cruz, Calif., USA; #3102, 1:1000), p-SMAD2 (465/467) (Cell Signaling; #3108, 1:1000); CD31 (Abcam., 1:1000), VE-Cadherin (Abcam, ab33168, 1:1000), COL1A1 (Abcam, ab138492, 1:200), FSP-1 (5100A4; Abcam, ab41532, 1:1000), SLUG (Abcam, ab27568, 1:1000), β-actin (Abcam, ab16039, 1:4000), HDAC3 (GeneTex GTX113303, 1:1000) and GAPDH (GeneTex, GT239, 1:1000) (both used as loading control). For detection, the inventors used secondary antibodies conjugated to horseradish peroxidase which were rabbit anti-mouse (Abcam, ab97046, 1:5000) and goat anti-rabbit (Abcam, ab6721, 1:10000). Detection was developed by chemiluminescence reaction (ECL) (Immunoblot, Millipore, 23225).

3′UTR of SMAD2 = assay: Luciferase reporter assay, wild-type 3′UTR of SMAD2; conditions: 48 h post-co-transfection, HEK293T cells or HUVECs; mutation of the binding sites restored it
Excerpt: (§1) Luciferase assay has been performed as previously described^53. TGFB2 3′-UTR and SMAD2 3′-UTR vectors were cloned in pMIR-Reporter (Life Technology). Primers are used for the cloning are: TGFβ2 3′UTR: Forward 5′-[…]-3′ (SEQ ID NO: 7), Reverse 5′-[…]-3′ (SEQ ID NO: 8); SMAD2 3′UTR: Forward 5′-[…]-3′ (SEQ ID NO: 9), Reverse 5′-[…]-3′ (SEQ ID NO: 10). Primers for 3′UTR mutation: TGFB2: Forward […] (SEQ ID NO: 11) and Reverse […] (SEQ ID NO: 12); SMAD2 Forward […] (SEQ ID NO: 13) and Reverse […] (SEQ ID NO: 14). Luciferase constructs were transfected into HEK293T cells or HUVECs together with miR-148b mimics or p-SV-beta-Gal control vector. Cells were cultured for 48 h and assayed with the Luciferase and β-Galactosidase Reporter Assay Systems (Promega). Luciferase values were normalized to protein concentration and β-galactosidase activity.

3′UTR of TGFB2 = assay: Luciferase reporter assay, wild-type 3′UTR of TGFB2; conditions: 48 h post-co-transfection, HEK293T cells or HUVECs; mutation of the binding sites restored it
Excerpt: as §1

| Molecule | CD31 and VE-cadherin immunoreactivity (HUVECs [1]) | COL1A1 and FSP-1 immunoreactivity (HUVECs [1]) | rounded/cobblestone morphology (HUVECs [1]) | expression of target genes TGFB2 and SMAD2 (mRNA) (HUVECs [2]; anti-miR 75 mM, 48 hrs) | CD31 and VE-cadherin (Western blot) (HUVECs [2]; anti-miR, 48 hrs) | SLUG (Western blot) (HUVECs [2]; anti-miR, 48 hrs) | SLUG expression (mRNA) (HUVECs [2]; anti-miR, 48 hrs) | TGFB2, SMAD2 and its phosphorylation (Western blot) (HUVECs [2]; anti-miR, 48 hrs) | expression of CD31 and VE-Cadherin (mRNA) (HUVECs [2]; anti-miR, 48 hrs) | expression of COL1A1 and FSP-1 (mRNA) (HUVECs [2]; anti-miR, 48 hrs) | mesenchymal markers COL1A1, FSP-1 (Western blot) (HUVECs [2]; anti-miR, 48 hrs) | α-SMA or vimentin (VIM) levels (HUVECs [2]; anti-miR, 48 hrs) | luciferase activity, 3′-UTR-SMAD2 reporter (3′UTR of SMAD2) | luciferase activity, 3′-UTR-TGFB2 reporter (3′UTR of TGFB2) | target gene (TGFB2, SMAD2) mRNA (HUVECs [2]; mimic 25 nM) | target gene (TGFB2, SMAD2) protein levels (HUVECs [2]; mimic 25 nM, Western blot) | expression of ACVR1 and ROCK1 (HUVECs [2]; mimic transfection) |
| --- | --- | --- | --- | --- | --- | --- | --- | --- | --- | --- | --- | --- | --- | --- | --- | --- | --- |
| anti-miR-148b: miR-148b inhibitor oligonucleotide; suitable inhibitor: hsa-miR-148b-3p miRCURY LNA inhibitor, CAAAGTTCTGTGATGCACTG (SEQ ID NO: 6) (commercial miRCURY LNA inhibitor, LNA positions not given here) | pronounced decrease | increase | lost | increased | suppression | up-regulation | strong up-regulation | upregulation | decreased | increased | appearance | without detectable changes |  |  |  |  |  |
| miR-148b mimic: miR-148b mimic oligonucleotide; in a particular embodiment has SEQ ID NO: 1, the human precursor miR-148b sequence (nucleic acid, listed as RNA, chemistry not given here) CAAGCACGAUUAGCAUUUGAGGUGAAGUUCUGUUAUACACUCAGGCUGUGGCUCUCUGAAAGUCAGUGCAUCACAGAACUUUGUCUCGAAAGCUUUCUA |  |  |  |  |  |  |  |  |  |  |  |  | decreased luciferase activity | decreased luciferase activity | reduced | reduced | did not affect |
